# From PubChem BioAssay AID330 (DTP/NCI, 2004)
# Values joined by “and” are separate entries in the source; they are usually repeats but may differ in a detail not shown here. Identical values can stand only once. Toxic doses and inconclusive results are not listed.
# Tested on: P388 leukemia ip, CD2F1 mice, survival T/C
# Assay: NCI In Vivo Anticancer Drug Screen. Data for tumor model P388 Leukemia (intraperitoneal) in CD2F1 (CDF1) mice
# Conditions: endpoint: median survival time, higher = longer survival
# Method in brief: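 Mice carrying the transplanted tumor received test compound or vehicle. Survival was recorded in each group, and the value is the treated-group measurement divided by that of the vehicle-treated control group.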
compound,measurement,setting,value
N[C@H](C(=O)O)[C@@H]1CC(Cl)=NO1,T/C,"dose: 0.03 mg/kg/injection, schedule: Q01DX009 (ip), vehicle: saline",105 % of control and 108 % of control
same,T/C,"dose: 0.06 mg/kg/injection, schedule: Q01DX009 (ip), vehicle: saline",113 % of control
same,T/C,"dose: 0.13 mg/kg/injection, schedule: Q01DX009 (ip), vehicle: saline",120 % of control
same,T/C,"dose: 0.25 mg/kg/injection, schedule: Q01DX009 (ip), vehicle: saline",150 % of control
same,T/C,"dose: 0.5 mg/kg/injection, schedule: Q01DX009 (ip), vehicle: saline",155 % of control
same,T/C,"dose: 0.63 mg/kg/injection, schedule: Q01DX009 (ip), vehicle: saline",174 % of control
same,T/C,"dose: 0.75 mg/kg/injection, schedule: Q01DX009 (ip), vehicle: saline",155 % of control
same,T/C,"dose: 1.0 mg/kg/injection, schedule: Q01DX009 (ip), vehicle: saline",150 % of control and 171 % of control
same,T/C,"dose: 1.0 mg/kg/injection, schedule: Q01DX009 (ip), vehicle: water",121 % of control
same,T/C,"dose: 1.25 mg/kg/injection, schedule: Q01DX009 (ip), vehicle: saline",213 % of control
same,T/C,"dose: 1.94 mg/kg/injection, schedule: Q01DX009 (ip), vehicle: saline",165 % of control and 179 % of control and 192 % of control
same,T/C,"dose: 2.0 mg/kg/injection, schedule: Q01DX005 (ip), vehicle: saline",119 % of control
same,T/C,"dose: 2.0 mg/kg/injection, schedule: Q01DX005 (ip), vehicle: water",111 % of control
same,T/C,"dose: 2.0 mg/kg/injection, schedule: Q01DX005 (iv), vehicle: saline",119 % of control
same,T/C,"dose: 2.0 mg/kg/injection, schedule: Q01DX009 (ip), vehicle: saline",152 % of control and 164 % of control and 198 % of control
same,T/C,"dose: 2.0 mg/kg/injection, schedule: Q01DX009 (ip), vehicle: water",153 % of control
same,T/C,"dose: 2.3 mg/kg/injection, schedule: Q01DX009 (ip), vehicle: saline",190 % of control
same,T/C,"dose: 2.5 mg/kg/injection, schedule: Q01DX009 (ip), vehicle: saline",235 % of control
same,T/C,"dose: 3.0 mg/kg/injection, schedule: Q01DX005 (iv), vehicle: saline",119 % of control
same,T/C,"dose: 3.0 mg/kg/injection, schedule: Q01DX009 (ip), vehicle: saline",175 % of control and 180 % of control and 238 % of control
same,T/C,"dose: 3.12 mg/kg/injection, schedule: Q01DX005 (ip), vehicle: water",155 % of control
same,T/C,"dose: 3.24 mg/kg/injection, schedule: Q01DX009 (ip), vehicle: saline",177 % of control and 189 % of control and 203 % of control
same,T/C,"dose: 3.5 mg/kg/injection, schedule: Q01DX009 (ip), vehicle: saline",194 % of control
same,T/C,"dose: 4.0 mg/kg/injection, schedule: Q01DX005 (ip), vehicle: saline",161 % of control
same,T/C,"dose: 4.0 mg/kg/injection, schedule: Q01DX005 (iv), vehicle: saline",119 % of control
same,T/C,"dose: 4.0 mg/kg/injection, schedule: Q01DX009 (ip), vehicle: saline",161 % of control and 190 % of control
same,T/C,"dose: 4.0 mg/kg/injection, schedule: Q01DX009 (ip), vehicle: water",112 % of control
same,T/C,"dose: 4.32 mg/kg/injection, schedule: Q01DX005 (ip), vehicle: saline",154 % of control
same,T/C,"dose: 5.0 mg/kg/injection, schedule: Q01DX005 (ip), vehicle: saline",158 % of control
same,T/C,"dose: 5.0 mg/kg/injection, schedule: Q01DX009 (ip), vehicle: saline",235 % of control
same,T/C,"dose: 5.3 mg/kg/injection, schedule: Q01DX009 (ip), vehicle: saline",203 % of control
same,T/C,"dose: 5.4 mg/kg/injection, schedule: Q01DX009 (ip), vehicle: saline",163 % of control and 188 % of control and 204 % of control
same,T/C,"dose: 6.0 mg/kg/injection, schedule: Q01DX009 (ip), vehicle: saline",173 % of control and 186 % of control and 319 % of control
same,T/C,"dose: 6.25 mg/kg/injection, schedule: Q01DX005 (ip), vehicle: water",150 % of control and 168 % of control
same,T/C,"dose: 7.2 mg/kg/injection, schedule: Q01DX005 (ip), vehicle: saline",156 % of control
same,T/C,"dose: 8.0 mg/kg/injection, schedule: Q01DX005 (ip), vehicle: saline",171 % of control and 182 % of control
same,T/C,"dose: 8.0 mg/kg/injection, schedule: Q01DX005 (iv), vehicle: saline",119 % of control
same,T/C,"dose: 8.0 mg/kg/injection, schedule: Q01DX009 (ip), vehicle: saline",186 % of control and 210 % of control
same,T/C,"dose: 8.0 mg/kg/injection, schedule: Q01DX009 (ip), vehicle: water",184 % of control
same,T/C,"dose: 9.0 mg/kg/injection, schedule: Q01DX009 (ip), vehicle: saline",99 % of control
same,T/C,"dose: 10.0 mg/kg/injection, schedule: Q01DX005 (ip), vehicle: saline",164 % of control
same,T/C,"dose: 12.0 mg/kg/injection, schedule: Q01DX005 (ip), vehicle: saline",220 % of control
same,T/C,"dose: 12.0 mg/kg/injection, schedule: Q01DX005 (iv), vehicle: saline",171 % of control
same,T/C,"dose: 12.5 mg/kg/injection, schedule: Q01DX005 (ip), vehicle: water",155 % of control and 182 % of control
same,T/C,"dose: 15.0 mg/kg/injection, schedule: Q01DX009 (ip), vehicle: saline",98 % of control and 100 % of control
same,T/C,"dose: 16.0 mg/kg/injection, schedule: Q01DX005 (ip), vehicle: saline",164 % of control and 181 % of control
same,T/C,"dose: 16.0 mg/kg/injection, schedule: Q01DX005 (ip), vehicle: water",152 % of control and 163 % of control
same,T/C,"dose: 16.0 mg/kg/injection, schedule: Q01DX009 (ip), vehicle: saline",102 % of control and 218 % of control
same,T/C,"dose: 16.0 mg/kg/injection, schedule: Q01DX009 (ip), vehicle: water",198 % of control
same,T/C,"dose: 20.0 mg/kg/injection, schedule: Q01DX005 (ip), vehicle: saline",169 % of control and 176 % of control
same,T/C,"dose: 20.0 mg/kg/injection, schedule: Q04DX003 (ip), vehicle: saline",158 % of control
same,T/C,"dose: 24.0 mg/kg/injection, schedule: Q01DX005 (ip), vehicle: saline",222 % of control
same,T/C,"dose: 24.0 mg/kg/injection, schedule: Q01DX005 (iv), vehicle: saline",108 % of control
same,T/C,"dose: 25.0 mg/kg/injection, schedule: Q01DX005 (ip), vehicle: water",155 % of control and 187 % of control
same,T/C,"dose: 32.0 mg/kg/injection, schedule: Q01DX005 (ip), vehicle: saline",225 % of control
same,T/C,"dose: 32.0 mg/kg/injection, schedule: Q01DX005 (ip), vehicle: water",170 % of control
same,T/C,"dose: 40.0 mg/kg/injection, schedule: Q04DX003 (ip), vehicle: saline",180 % of control and 196 % of control
same,T/C,"dose: 50.0 mg/kg/injection, schedule: Q04DX003 (ip), vehicle: other",163 % of control
same,T/C,"dose: 80.0 mg/kg/injection, schedule: Q04DX003 (ip), vehicle: saline",150 % of control and 190 % of control and 297 % of control
same,T/C,"dose: 100.0 mg/kg/injection, schedule: Q04DX003 (ip), vehicle: other",161 % of control
same,T/C,"dose: 160.0 mg/kg/injection, schedule: Q04DX003 (ip), vehicle: saline",118 % of control and 164 % of control and 250 % of control
